The numbers were not newly measured in patent US20250275556A1, “N[…] METHOD FOR PRODUCING THE SAME” (Kalium Agri, Inc., priority 2024, published 2025), which cites them from elsewhere.

The conditions of the data set: magnesium supplement in cattle, in optimal situations.

Structures are written as SMILES.

In the case of `[O]=[Mg]` [magnesium oxide], the digestible is 19%.
